Holding throughout (experiment): inhibition of tumour cell growth, NCI panel, 48 h
For assay [1], the system named is A498 renal.
Assay [2] has as its system SNB-19 CNS.
In assay [3] the test system is MOLT-4 leukemia.
The test system of assay [4] is HOP-62 NSCLC.
The subject of assay [5] is MDA-MB-435.
Assay [6] deals with MALME-3M melanoma.
Assay [7] concerns SF-539 CNS.
The subject of assay [8] is UACC-62 melanoma.
The subject of assay [9] is M14 melanoma.
Assay [10] concerns SNB-75 CNS.

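Grown in 96-well plates, cells were treated for 48 hours with each compound at five concentrations. Insufficient inhibition: endpoint recorded as highest concentration tested. GI50: concentration for 50% inhibition of growth. TGI denotes the concentration required for complete inhibition of growth.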

`CC(C)=Cc1cccc2[nH]c(O)c(N=Nc3ccc(S(N)(=O)=O)cc3)c12`: the GI50 in assay [1] was above 25 µM; in assay [2], above 14.6 µM; in assay [3] it was 1.74 µM; in assay [4], above 14.3 µM; in assay [5], above 21.4 µM; in [6], above 25 µM. In addition, the GI50 in assay [7] was 2.72 µM; in assay [8], above 25 µM; in [9], above 25 µM; in [10] it was above 8.54 µM. Also, the TGI in assay [1], in assay [2], in assay [3], in [4], in assay [5] and in [6] was above 25 µM throughout. In addition, the TGI was above 20.1 µM in [7], above 25 µM in [8], above 25 µM in [9] and above 25 µM in [10].

The values above are taken from PubChem BioAssay (NCI).
